According to patent US9606132B2, “Methods of monitoring adherence to lurasidone therapy” (Ameritox, Ltd., priority 2013, dated 2017):
Like-named read-outs stand apart in the source and are kept apart here. Blank lines part the entries; values can stand above or below the compound they belong to.

What was measured:
[1] = in vivo
Method: Urine samples of normally metabolizing human subjects who were known to be taking chronic doses of lurasidone were tested for the presence of lurasidone and eleven metabolites (excluding isomeric metabolites). Each patient sample was analyzed twice to ensure accuracy. Due to the high probability for false identification of isobars, MS/MS data was collected and selectively looked at to add confidence to the identification.

[2] = cited from earlier work; for presence in serum: mice, rats, dogs (M8 also monkeys), 10 mg/kg oral administration of radiolabelled lurasidone
[3] = cited from earlier work; for presence in serum: 40 mg oral dosing of radiolabelled lurasidone

SMILES: O=C1C2C(C(=O)N1CC1CCCCC1CN1CCN(c3nsc4ccccc34)CC1)[C@@H]1CC[C@H]2C1O (some centres unmarked) [M8/M9, Hydroxy-Lurasidone]
detectability in human urine (Example 1) [1]: present in detectable quantities in each test of each subject's urine sample

SMILES: O=C1C2C(C(=O)N1CC1CCCCC1CN1CCN(c3nsc4ccccc34)CC1)[C@@H]1CC[C@H]2C1O (some centres unmarked) [M9]
identification in serum ([2]; rats and dogs): identified in rats and dogs

SMILES: O=C(O)C1CCCCC1CN1C(=O)C2C(C1=O)[C@@H]1CC[C@H]2C1O (some centres unmarked) [M5]
detectability in human urine (Example 1) ([1]; human): neither metabolite ID-20220 (M5) nor metabolite ID-20219 (M11) were found to be excreted through human urine in detectable amounts

Lurasidone Metabolite Distribution in Human Urine (qualitative identification) [1]: ✓*
SMILES: O=C(O[C@@H]1O[C@H](C(=O)O)[C@@H](O)[C@H](O)[C@H]1O)C1CCCCC1CN1C(=O)C2C(C1=O)[C@H]1CC[C@@H]2C1 (some centres unmarked) [M11 Gluc]

SMILES: O=C1C2C(C(=O)N1CC1CCCCC1CN1CCN(c3nsc4ccccc34)CC1)[C@@H]1CC[C@H]2C1O (some centres unmarked) [M8]
presence in serum ([3]; humans): present in an unspecified low amount | presence in serum [2]: present in an unspecified low amount

SMILES: CSc1ccccc1C(=N)N1CCN(CC2CCCCC2CN2C(=O)C3C(C2=O)[C@H]2CC[C@@H]3C2)CC1 (some centres unmarked) [M21, S-Methyl Lurasidone]
detectability in human urine (Example 1) [1]: present in detectable quantities in each test of each subject's urine sample | detection as circulating metabolite in serum ([2]; any of the animal models, radiolabelled lurasidone): did not detect

Lurasidone Metabolite Distribution in Human Urine (qualitative identification) [1]: ✓^*
SMILES: O=C(O)C1CCCCC1CN1C(=O)C2C(C1=O)[C@H]1CC[C@@H]2C1 (some centres unmarked) [M11, 2-{(3,5-Dioxo-4-azatricyclo[5.2.1.0^2,6]dec-4-yl)methyl}cyclohexanecarboxylic acid]
detectability in human urine (Example 1) ([1]; human): neither metabolite ID-20220 (M5) nor metabolite ID-20219 (M11) were found to be excreted through human urine in detectable amounts | share of total radioactivity in plasma ([3]; plasma, post oral dosing): 24%

SMILES: [H]/N=C(/c1ccccc1SC)N1CCN(CC2CCCCC2CN2C(=O)C3C(C2=O)[C@@H]2CC[C@H]3C2O)CC1 (some centres unmarked) [M22, S-Methyl Hydroxy Lurasidone]
detectability in human urine (Example 1) [1]: present in detectable quantities in each test of each subject's urine sample | presence in serum ([3]; humans): present in an unspecified low amount | share of total drug-related exposure ([3]; humans): less than 10% | presence in serum [2]: present in an unspecified low amount | detection in other animal models ([2]; rabbits or monkeys): not detected in any amount

detectability in human urine (Example 1) [1]: not present at any significant amount
SMILES: O=C1C2C(C(=O)N1CC1CCCCC1CN1CCN(c3n[s+]([O-])c4ccccc34)CC1)[C@H]1CC[C@@H]2C1 (some centres unmarked) [M10]
